# Key:
# [1] = molecular target: HDAC2 (Homo sapiens, UniProt Q92769); assay: Endogenous HDAC2 activity assay (luminescence) in SHSY5Y cells; assay type: cell-based; set-up: endogenous in cells; host or cells: SHSY5Y; details: not reduced by DTT; 30 min of treatment
# Description: Next, JRM-28 in the presence of DTT was evaluated by cytotoxicity assays. A TUNEL assay was performed with SHSY5Y neuronal cells using increasing concentrations of JRM-28 in the presence of DTT. […] The results were further confirmed by quantitative analysis (Figure 4B). […] Next, we wanted to study the effect of lower concentrations of […] on the regulation of HDAC2 activity. […] To further confirm this finding, we performed a luminescence-based HDAC2 activity assay in SHSY5Y cells with increasing doses of JRM-28. JRM-28 was not reduced by DTT during the treatment, as the cellular reductase and oxidoreductase enzymes are expected to reduce JRM-28 in its “active 28a/b” components. […]
# Figure 4 Exploring the cytotoxicity of JRM-28. SHSY5Y neurons were treated with different doses of JRM-28 for 24 h and then analyzed for different cytotoxicity assays. […] TUNEL^+ve cells were detected as condensed brown bodies, whereas nuclei were stained with hematoxylin (blue). (B) TUNEL bodies were counted per 10 randomly selected cells in 20 different images. Results were plotted as a dotted boxplot, and the significance of the mean was analyzed by one-way ANOVA (single effector = treatment). **** p < 0.00001 versus DMSO control. […] (E) The band density of individual HDAC2 bands was assessed in ImageJ software (version 1.45) followed by normalization with respective β-actin band density. […]
# [2] = tested on: mouse primary hippocampal neurons; assay: Dendrite and spine analysis in E18 mouse primary hippocampal neurons; assay type: cell-based; details: 5 µM, 48 h
# Description: Primary neuronal cell culture was performed based on a protocol approved by the Institutional Animal Care and Use Committee (IACUC) of the University of Wisconsin-Milwaukee, Milwaukee, WI-53211, and by the guidelines set by the National Institute of Health. Embryonic day 18 (E18) fetuses were harvested, and hippocampal tissue was dissected from brains and then processed for single cell culture in poly-D-lysine-coated plates, as discussed elsewhere. Neuronal cells were maintained with B-27^TM-plus-supplemented complete neurobasal media for 7–10 days until fully differentiated. After that, the treatment with JRM-28 was performed. […]
# For counting spine density, dissociated E18 hippocampal neurons maintained 18 days in vitro were stained with Alexa-647 conjugated phalloidin (Cat #A22287) together with MAP2. Only densely stained neurons (>20 spines every 10 µm dendrite) were counted. The total length of each dendrite was measured at 400× magnification using an Accu-Scope EXC-500 microscope (NY, USA). The number of spines on the dendrites was counted under oil immersion. As some of the spines were hidden under the dendrite, only spines that protruded laterally from the shafts of the dendrites into the surrounding area of clear neuropil were counted. […]
# [3] = tested on: iPSC-derived AD neurons; assay: Dual immunofluorescence in iPSC-derived AD neurons (A246E psen1); assay type: cell-based, human
# Description: Primary neuronal cell culture was performed based on a protocol approved by the Institutional Animal Care and Use Committee (IACUC) of the University of Wisconsin-Milwaukee, Milwaukee, WI-53211, and by the guidelines set by the National Institute of Health. Embryonic day 18 (E18) fetuses were harvested, and hippocampal tissue was dissected from brains and then processed for single cell culture in poly-D-lysine-coated plates, as discussed elsewhere. Neuronal cells were maintained with B-27^TM-plus-supplemented complete neurobasal media for 7–10 days until fully differentiated. After that, the treatment with JRM-28 was performed. SHSY5Y cells were grown, maintained, and passaged with complete DMEM media (a bottle of DMEM supplemented with 10% FBS, 2 mM L-glutamine, and 100 units/mL antibiotics); otherwise, for neuronal differentiation study, SHSY5Y was seeded with complete neurobasal medium. For making AD neurons, commercially purchased (Axol Bioscience Ltd.) A246E psen1 neural stem cells (NSCs) were maintained with KnockOut^TM DMEM/F12 media supplemented with StemPro^TM Neural Supplement, bFGF, EGF, 2 mM GlutMAX^TM supplement, and 10 mL/L antibiotic-antimycotic solution. These […] NSCs were grown in a […] cell culture flask coated with Geltrex^TM matrix until fully confluent and then detached by Accutase, centrifuged, washed, and plated in a poly-D-lysine-coated plate supplemented with complete neurobasal media for neuronal differentiation. After one week, when neurons were differentiated, JRM-28 treatment was conducted.
# Immunofluorescence analysis was performed as described earlier. Briefly, cells cultured on coverslip contained in six-well plates (Lab-Tek II) were fixed with 4% paraformaldehyde for 20 min followed by two rinses in TBST. Samples were incubated in a 1:1 solution of TBST and blocking buffer containing rabbit anti-NR2A (1:250), anti-GluR1 (1:250), ant-HDAC2 (1:250), anti-CREB (1:250), and anti-MAP2 (1:250) for 2 h at 37 °C. After three washes in PBST (15 min each), slides were further incubated with FIT-C and TRIT-C-conjugated secondary antibodies. For negative controls, a set of culture slides was incubated under similar conditions with secondary antibodies and without the primary antibodies (Table 3). The samples were mounted and observed under an Accuscope fluorescent microscope. The images were captured and merged in CaptaVision^TM imaging software.
# HDAC2, sequence (Q92769 whole entry): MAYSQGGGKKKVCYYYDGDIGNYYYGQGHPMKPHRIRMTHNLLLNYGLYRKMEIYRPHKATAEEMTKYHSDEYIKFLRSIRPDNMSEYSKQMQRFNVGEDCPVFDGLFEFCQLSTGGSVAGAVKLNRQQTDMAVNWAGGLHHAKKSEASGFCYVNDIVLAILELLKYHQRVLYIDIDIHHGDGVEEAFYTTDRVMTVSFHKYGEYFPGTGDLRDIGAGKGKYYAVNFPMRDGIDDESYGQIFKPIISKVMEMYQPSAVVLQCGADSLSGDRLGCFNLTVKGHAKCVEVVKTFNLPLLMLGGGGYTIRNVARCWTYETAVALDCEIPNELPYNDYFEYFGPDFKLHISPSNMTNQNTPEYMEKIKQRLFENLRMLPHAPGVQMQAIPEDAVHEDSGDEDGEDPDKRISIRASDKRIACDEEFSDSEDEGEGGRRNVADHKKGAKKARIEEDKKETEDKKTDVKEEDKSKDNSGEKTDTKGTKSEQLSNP
smiles,measurement,setting,value
"CN(C(=O)CC(O)/C=C/CCSS(=O)(=O)CC/C=C/C(O)CC(=O)N(C)c1ccccc1)c1ccccc1 (stereo not drawn) [JRM-28, S-((E)-5-hydroxy-7-(methyl(phenyl)amino)-7-oxohept-3-en-1-yl) (E)-5-hydroxy-7-(methyl(phenyl)amino)-7-oxohept-3-ene-1-sulfonothioate]",IC50,[1],5.44 µM
same,spine maturation (head-to-shaft ratio >0.6),[2]; 18 DIV,significantly induced the maturation of spines
same,MAP2-ir basal dendrites,[2]; 8 days in vitro,significantly upregulated the synthesis of MAP2-ir basal dendrites
same,"expressions of ionotropic glutamate receptors (NR2A, GluR1)",[3]; 5 µM,augmented the expressions of ionotropic glutamate receptors
same,length of MAP2-ir basal dendrites,[3]; 5 µM,increase the length of MAP2-ir basal dendrites
same,CREB expression (dual IF),"[3]; 5 μM, 24 h (legend: 48 h)",strong upregulation of CREB
same,HDAC2 expression (dual IF),"[3]; 5 μM, 24 h (legend: 48 h)",significant downregulation of HDAC2
